Consider 1 compound from patent US20200123104A1, “PHARMACEUTICAL AGENT THAT BINDS THE P2X7 RECEPTOR” (Indiana University Research and Technology Corporation, priority 2017, published 2020).

Where “and” joins values, the source holds several entries; their conditions need not be identical. Equal entries are not always repeated.

Series [1] addresses T1, human P2X7R (HEK293-hP2X7R) (Homo sapiens, UniProt Q99572).
T1 construct: expressed in transfected cells; host or cells: HEK293
T1 sequence (Q99572 1-595): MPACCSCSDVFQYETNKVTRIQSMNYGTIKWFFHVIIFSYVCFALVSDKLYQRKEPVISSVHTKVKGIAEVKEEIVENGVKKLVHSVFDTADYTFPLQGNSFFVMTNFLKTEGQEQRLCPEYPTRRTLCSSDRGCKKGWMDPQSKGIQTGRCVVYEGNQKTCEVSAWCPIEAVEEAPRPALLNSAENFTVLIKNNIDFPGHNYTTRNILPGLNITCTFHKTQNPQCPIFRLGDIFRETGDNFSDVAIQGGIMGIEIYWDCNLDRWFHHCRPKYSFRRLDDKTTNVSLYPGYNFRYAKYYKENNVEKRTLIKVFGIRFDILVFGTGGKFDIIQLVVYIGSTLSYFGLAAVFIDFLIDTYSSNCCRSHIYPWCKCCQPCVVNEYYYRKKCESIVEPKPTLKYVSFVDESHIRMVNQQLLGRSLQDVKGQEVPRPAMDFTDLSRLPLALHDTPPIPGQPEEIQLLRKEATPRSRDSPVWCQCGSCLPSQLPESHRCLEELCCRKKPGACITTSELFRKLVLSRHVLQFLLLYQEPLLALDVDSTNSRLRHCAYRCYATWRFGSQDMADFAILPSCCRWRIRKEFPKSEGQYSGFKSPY
Description: Saturation and kinetic radioligand binding of 11C-GSK1482160 to HEK293-hP2X7R.
Description: Receptor density (Bmax) is determined by a saturation approach as employed with each P2X7-receptor ligand employing [^11C]GSK1482160 as a convenient reference ligand that is expected to bind in the same region of the receptor. […] Samples and control wells are run in triplicate at each concentration. After equilibrium has been reached, separation of bound from free [^11C]GSK1482160 radioligand is performed using a 96-well filtration apparatus. To estimate receptor association (kon) and dissociation (koff) rates, an association/dissociation kinetic experiment is performed. Association is measured as a function of time using cell membrane homogenate from HEK-P2X7 cells incubated with 2-4 concentrations of the ^18F-radioligand. Dissociation is measured in the presence of excess authentic standard once at steady state according to published methods. Radioactivity for both studies is measured on the filters (or filter plates) using a Perkin-Elmer TopCount Data is analyzed and plotted using GraphPad Prism to obtain Bmax and Kd values for the compound.

The target of series [2] is T2, P2X7 receptor (Homo sapiens, UniProt Q99572).
T2 sequence (Q99572 1-595): T1 sequence (Q99572 1-595)
Briefly: Competitive binding with [11C]GSK1482160 as reference tracer, membrane homogenate of HEK cells transfected with the human P2X7 gene. On the set-up: host or cells: HEK (human embryonic kidney) cells, membrane homogenate. The conditions noted are these: HEK-hP2X7 membrane homogenate, [11C]GSK1482160 reference tracer.
Description: Samples and control wells are run in triplicate at each concentration. After equilibrium has been reached, separation of bound from free [^11C]GSK1482160 radioligand is performed using a 96-well filtration apparatus. To estimate receptor association (kon) and dissociation (koff) rates, an association/dissociation kinetic experiment is performed. Association is measured as a function of time using cell membrane homogenate from HEK-P2X7 cells incubated with 2-4 concentrations of the ^18F-radioligand. Dissociation is measured in the presence of excess authentic standard once at steady state according to published methods. Radioactivity for both studies is measured on the filters (or filter plates) using a Perkin-Elmer TopCount Data is analyzed and plotted using GraphPad Prism to obtain Bmax and Kd values for the compound.

For series [3] the following is noted: in vivo; cited from earlier work.
Series [4] deals with T2, P2X7 receptor. The conditions noted are these: read-out: P2X7 receptor affinity (KB) (converted); cited from earlier work.

As a reminder, the koff is the first-order rate constant of dissociation. The term Ki denotes the dissociation constant of the complex between target and ligand, obtained from inhibition or displacement. A low value points to a stronger hold on the target. As for `[11CH3]N1C(=O)CC[C@H]1C(=O)NCc1cccc(C(F)(F)F)c1Cl` [[^11C]GSK1482160], the Kd in series [1] (read-out: K) worked out at 1.15 ± 0.12 nM. For the same compound, in series [1] (read-out: dissociation constant koff (converted)), the koff is 0.00425 s⁻¹. Moreover, the affinity on P2X7 receptor [2], expressed as Ki, was 5.14 ± 0.85 nM. Further, the “crossing of the blood-brain barrier” value in series [3] was “readily crosses the blood-brain barrier”. The Kb at P2X7 receptor [4] was 95.9 nM and 95 nM.
